# Laboratory results taken from US11247987B2, “Inhibiting ubiquitin specific peptidase 30” (FORMA Therapeutics, Inc., priority 2017, dated 2022).
# Target: T1, human recombinant USP30 (Homo sapiens, UniProt Q70CQ3)
# T1 construct: purchased Boston Biochem E-582
# T1 sequence (Q70CQ3 1-517): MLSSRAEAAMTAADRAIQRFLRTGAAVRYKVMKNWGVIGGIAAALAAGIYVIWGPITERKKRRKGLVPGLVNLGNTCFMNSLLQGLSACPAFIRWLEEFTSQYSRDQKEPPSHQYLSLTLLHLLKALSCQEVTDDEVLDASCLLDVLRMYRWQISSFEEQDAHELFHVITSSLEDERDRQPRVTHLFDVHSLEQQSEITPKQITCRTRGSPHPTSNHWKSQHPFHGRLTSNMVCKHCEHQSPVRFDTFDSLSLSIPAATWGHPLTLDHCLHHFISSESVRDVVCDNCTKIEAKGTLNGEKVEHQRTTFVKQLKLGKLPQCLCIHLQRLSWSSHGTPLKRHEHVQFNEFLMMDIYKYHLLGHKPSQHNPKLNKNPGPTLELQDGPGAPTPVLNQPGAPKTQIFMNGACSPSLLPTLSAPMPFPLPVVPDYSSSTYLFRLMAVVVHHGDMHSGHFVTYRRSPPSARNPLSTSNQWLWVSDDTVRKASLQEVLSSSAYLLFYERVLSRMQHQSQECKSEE
# Experiment: Ubiquitin-Rhodamine 110 Assay for USP30 Activity (USP30 Inhibitor Biochemical Assay)
# Conditions: 0.2 nM USP30, 25 nM Ub-Rh110, 30 min preincubation, 30 min at room temperature; read-out: USP30 potency range (USP30 biochemical IC50 assay, IC50 ranges)
# Protocol: Example A: Biochemical Assay: Ubiquitin-Rhodamine 110 Assay for USP30 Activity (USP30 Inhibitor Biochemical Assay)
# The assay was performed in a final volume of 9 μL in assay buffer containing 20 mM Tris-HCl (pH 8.0, (1M Tris-HCl, pH 8.0 solution; Corning 46-031-CM)), 1 mM GSH (L-glutathione reduced, Sigma-Aldrich, G4251-100G), 0.03% BGG (0.22 μM filtered, Sigma, G7516-25G), and 0.01% Triton X-100 (Sigma, T9284-10L). Nanoliter quantities of 10-point, 3-fold serial dilution in DMSO were pre-dispensed into 1536 assay plates (Corning, #3724BC) for a final test concentration of 25 μM to 1.3 nM, top to lowest dose, respectively. Concentration and incubation times were optimized for the maximal signal-to-background while maintaining initial velocity conditions at a fixed substrate concentration. The final concentration of USP30 (human recombinant USP30, Boston Biochem, cat. # E-582) in the assay was 0.2 nM. […] 3 μL of 2×USP30 was added to assay plates (pre-stamped with compound), preincubated for 30 minutes and then treated with 3 μL of 2×Ub-Rh110. Plates were incubated for 30 minutes at room temperature before addition of 3 μL of stop solution (final concentration of 10 mM citric acid (Sigma, 251275-500G)). Fluorescence was read on the Envision (excitation at 485 nm and emission at 535 nm; Perkin Elmer) or on the PheraSTAR (excitation at 485 nm and emission at 535 nm; BMG Labtech).
# For all assay formats data were reported as percent inhibition compared with control wells based on the following equation: % inh=1−((FLU−AveLow)/(AveHigh−AveLow)) where FLU=measured Fluorescence, AveLow=average Fluorescence of no enzyme control (n=16), and AveHigh=average Fluorescence of DMSO control (n=16). IC50 values were determined by curve fitting of the standard 4 parameter logistic fitting algorithm included in the Activity Base software package: IDBS XE Designer Model205. Data is fitted using the Levenburg Marquardt algorithm.
row,Compound,IC50
1,"N#CN[C@H]1CCC[C@H]1C(=O)Nc1ncc(C2CCCCC2)s1 [Compound 10-7, (1R,2S)-2-(cyanoamino)-N-(5-cyclohexyl-1,3-thiazol-2-yl)cyclopentane-1-carboxamide]",1000 to 10000 nM
2,"Cn1nc(-c2ccccc2)cc1NC(=O)[C@H]1C[C@H](NC#N)C1 [Compound 1-2, (1r,3r)-3-(cyanoamino)-N-(1-methyl-3-phenyl-1H-pyrazol-5-yl)cyclobutane-1-carboxamide]",100 to 1000 nM
3,"N#CN[C@H]1C[C@H](C(=O)Nc2ncc(C3CCOCC3)s2)C1 [Compound 1-1, trans-3-(cyanoamino)-N-[5-(oxan-4-yl)-1,3-thiazol-2-yl]cyclobutane-1-carboxamide]",1000 to 10000 nM
4,"N#CN[C@H]1C[C@H](C(=O)Nc2ncc([C@@H]3CCCCO3)s2)C1 [Compound 1-28, (1r,3r)-3-(cyanoamino)-N-{5-[(2S)-oxan-2-yl]-1,3-thiazol-2-yl}cyclobutane-1-carboxamide]",1000 to 10000 nM
5,"N#CN[C@H]1C[C@H](C(=O)Nc2ncc([C@@H]3CCCC[C@@H]3C(F)(F)F)s2)C1 [Compound 1-33, (1r,3r)-3-(cyanoamino)-N-{5-[(1R,2S)-2-(trifluoromethyl)cyclo-hexyl]-1,3-thiazol-2-yl}cyclobutane-1-carboxamide]",100 to 1000 nM
6,"CC1(C)CCCC[C@@H]1c1ncc(NC(=O)[C@H]2C[C@H](NC#N)C2)s1 [Compound 1-12, (1r,3r)-3-(cyanoamino)-N-{2-[(1S)-2,2-dimethylcyclohexyl]-1,3-thiazol-5-yl}cyclobutane-1-carboxamide]",< 100 nM
7,"N#CN[C@H]1CC[C@H](C(=O)Nc2ncc(C3CCOCC3)s2)C1 [Compound 10-10, (1S,3S)-3-(cyanoamino)-N-[5-(oxan-4-yl)-1,3-thiazol-2-yl]cyclopentane-1-carboxamide]",1000 to 10000 nM
8,"N#CN[C@H]1C[C@](F)(C(=O)Nc2nc(Cl)c(C3CCCCC3)s2)C1 [Compound 1-47, (1s,3s)-N-(4-chloro-5-cyclohexyl-1,3-thiazol-2-yl)-3-(cyanoamino)-1-fluorocyclobutane-1-carboxamide]",100 to 1000 nM
9,"CN(c1nc(Cl)c(C2CCCCC2)s1)C(=O)[C@H]1C[C@H](NC#N)C1 [Compound 1-49, (1r,3r)-N-(4-chloro-5-cyclohexyl-1,3-thiazol-2-yl)-3-(cyanoamino)-N-methylclycobutane-1-carboxamide]",< 100 nM
10,"N#CN[C@@H]1CCC[C@@H]1C(=O)Nc1ncc(C2CCCCC2)s1 [Compound 10-8, (1S,2R)-2-(cyanoamino)-N-(5-cyclohexyl-1,3-thiazol-2-yl)cyclopentane-1-carboxamide]",1000 to 10000 nM
11,"N#CN[C@H]1C[C@@H](NC(=O)c2ncc(-c3ccccc3)s2)C1 [Compound 4-1, 5-phenyl-N-[(cis)-3-(cyanoamino)cyclobutyl]-1,3-thiazole-2-carboxamide]",1000 to 10000 nM
12,"N#CN[C@H]1C[C@H](C(=O)Nc2nc(C3CC3)c(C3CCCCC3)s2)C1 [Compound 1-25, (1r,3r)-3-(cyanoamino)-N-(5-cyclohexyl-4-cyclopropyl-1,3-thiazol-2-yl)cyclobutane-1-carboxamide]",< 100 nM
13,"N#CN[C@H]1C[C@H](C(=O)Nc2cnc(C3CC(F)(F)C3)s2)C1 [Compound 1-9, (1r,3r)-3-(cyanoamino)-N-[2-(3,3-difluoro-cyclobutyl)-1,3-thiazol-5-yl]cyclobutane-1-carboxamide]",100 to 1000 nM
14,"N#CN[C@@H]1CC[C@@H](C(=O)Nc2ncc(C3CCOCC3)s2)C1 [Compound 10-11, (1R,3R)-3-(cyanoamino)-N-[5-(oxan-4-yl)-1,3-thiazol-2-yl]cyclopentane-1-carboxamide]",10000 to 25000 nM
15,"N#CN[C@H]1C[C@H](C(=O)Nc2ncc([C@@H]3CCCC[C@H]3C(F)(F)F)s2)C1 (single isomer, unassigned) [Compound 1-35]",100 to 1000 nM
16,"N#CN[C@H]1C[C@@H](C(=O)Nc2ncc(-c3ccccc3)s2)C1 [Compound 5-4, cis-3-(cyanoamino)-N-(5-phenyl-1,3-thiazol-2-yl)cyclobutane-1-carboxamide]",1000 to 10000 nM

row,Compound,IC50
1,"N#CN[C@H]1C[C@H](C(=O)Nc2ncc([C@H]3CCCC[C@H]3C(F)(F)F)s2)C1 [Compound 1-32, (1r,3r)-3-(cyanoamino)-N-{5-[(1S,2R)-2-(trifluoromethyl)cyclo-hexyl]-1,3-thiazol-2-yl}cyclobutane-1-carboxamide]",100 to 1000 nM
2,"Cn1nc(C2CCCCC2)cc1NC(=O)[C@H]1C[C@H](NC#N)C1 [Compound 1-6, (1r,3r)-3-(cyanoamino)-N-(3-cyclohexyl-1-methyl-1H-pyrazol-5-yl)cyclobutane-1-carboxamide]",100 to 1000 nM
3,"CC1(C)CCCC[C@H]1c1ncc(NC(=O)[C@H]2C[C@H](NC#N)C2)s1 (single isomer, unassigned) [Compound 1-13]",100 to 1000 nM
4,"Cc1nc(NC(=O)[C@H]2C[C@H](NC#N)C2)sc1C1CCCCC1 [Compound 1-29, (1r,3r)-3-(cyanoamino)-N-(5-cyclohexyl-4-methyl-1,3-thiazol-2-yl)cyclobutane-1-carboxamide]",< 100 nM
5,"N#CN[C@H]1C[C@H](C(=O)Nc2ccc(Cl)c(C(F)(F)F)c2)C1 [Compound 1-20, (1r,3r)-N-[4-chloro-3-(trifluoromethyl)phenyl]-3-(cyano-amino)cyclobutane-1-carboxamide]",1000 to 10000 nM
6,"N#CN[C@H]1C[C@H](C(=O)Nc2ncc(C3CCCCC3)o2)C1 [Compound 1-53, (1r,3r)-3-(cyanoamino)-N-(5-cyclohexyl-1,3-oxazol-2-yl)cyclobutane-1-carboxamide]",100 to 1000 nM
7,"N#CN[C@H]1C[C@@H](C(=O)Nc2ccn(-c3ccccc3)n2)C1 [Compound 5-2, cis-3-(cyanoamino)-N-(1-phenyl-1H-pyrazol-3-yl)cyclobutane-1-carboxamide]",10000 to 25000 nM
8,"N#CN[C@H]1CCC[C@H](C(=O)Nc2ncc(C3CCCCC3)s2)C1 [Compound 10-5, (1S,3S)-3-(cyanoamino)-N-(5-cyclohexyl-1,3-thiazol-2-yl)cyclohexane-1-carboxamide]",> 25000 nM
9,"CN(c1nc(Cl)c(C2CCCCC2)s1)C(=O)[C@]1(F)C[C@@H](NC#N)C1 [Compound 1-58, (1s,3s)-N-(4-chloro-5-cyclohexyl-1,3-thiazol-2-yl)-3-(cyanoamino)-1-fluoro-N-methylcyclobutane-1-carboxamide]",100 to 1000 nM
10,"CC(C)(C)c1sc(NC(=O)[C@]2(F)C[C@H](NC#N)C2)nc1Cl [Compound 1-60, (1r,3r)-N-(5-tert-butyl-4-chloro-1,3-thiazol-2-yl)-3-(cyanoamino)-1-fluorocyclobutane-1-carboxamide]",< 100 nM
11,"C[C@@H]1CCCC[C@@H]1c1cnc(NC(=O)[C@H]2C[C@H](NC#N)C2)s1 [Compound 1-21, (1r,3r)-3-(cyanoamino)-N-{5-[(1S,2R)-2-methylcyclohexyl]-1,3-thiazol-2-yl}cyclobutane-1-carboxamide]",100 to 1000 nM
12,"CC(C)c1ccc(CNC(=O)[C@H]2C[C@H](NC#N)C2)cc1 [Compound 1-70, (1r,3r)-3-(cyanoamino)-N-{[4-(propan-2-yl)phenyl]methyl} cyclobutane-1-carboxamide]",< 100 nM
13,"N#CN[C@H]1CC[C@H](C(=O)Nc2ncc(-c3ccccc3)s2)C1 [Compound 12-4, (1S,3S)-3-(cyanoamino)-N-(5-phenyl-1,3-thiazol-2-yl)cyclopentane-1-carboxamide]",1000 to 10000 nM
14,"N#CN[C@H]1C[C@@](F)(C(=O)Nc2nc3cccc(OC4CCC4)c3s2)C1 [Compound 1-65, (1r,3r)-3-(cyanoamino)-N-(7-cyclobutoxy-1,3-benzothiazol-2-yl)-1-fluorocyclobutane-1-carboxamide]",< 100 nM
15,"CN(c1nc(Cl)c(C(C)(C)C)s1)C(=O)[C@]1(F)C[C@H](NC#N)C1 [Compound 1-54, (1r,3r)-N-(5-tert-butyl-4-chloro-1,3-thiazol-2-yl)-3-(cyanoamino)-1-fluoro-N-methylcyclobutane-1-carboxamide]",< 100 nM
